“Also recorded” adds a separate entry of the source. Like-named read-outs stand apart in the source and are kept apart here. Marks after values point to notes of the source that are not given here.
Key:
[1] = Photo stability: effect of solar simulating UV irradiation on SPF values of sunscreens; type: physicochemical; conditions: for SPF after UV irradiation: fifty μM solution
Procedure: Fifty μM sunscreen solutions placed in 3.5 cm Petri dishes were irradiated by 66% UVA+33% UVB for 1, 3, 20, and 40 min. Final doses of UV irradiation were 0.15, 0.45, 3.0, and 6.0 J/cm^2, respectively. * p<0.05 vs background SPF; ** p<0.01 vs background SPF.

[2] = Broad band UVB and UVA absorption (SPF and UVA/UVB ratio) of sunscreens; type: physicochemical; conditions: for SPF1 (sun protection factor corresponding to UVB absorption): 250 μM sunscreen; for SPF2 (sun protection factor corresponding to UVB absorption): 10% (weight %) sunscreen
Procedure: For the invention as claimed data are presented in support of the surprising finding that definite naturally glycosylated polyphenols provide optimal photo-protection due to several reasons. They effectively absorb broad-band range of UV light in both spectrum regions: UVA and UVB. […] The efficacy of absorption is expressed as SPF (sun protection factor) for UVB range representing an integral of absorption within the whole UVB spectrum. The efficacy of absorption is also calculated as the UVA/UVB ratio showing that the ratio should be greater than 0.5 up to 1.2 in order to provide proper UVA protection.

skin cells = test: Photo-chemo-toxicity (photo-chemo damage to skin cells); type: cell-based
Description: This is true for quercetin and its alpha-glycosylated derivative, resveratrol, chalcone and many others. The phenomenon of photo-chemo-toxicity depends of UV-induced destruction of the parent molecule and cytotoxicity exerted by the formed metabolites.

[3] = UV (66% UVA + 33% UVB) 0 J/cm^2
[4] = UV (66% UVA + 33% UVB) 3.0 J/cm^2 (20 min)
[5] = UV (66% UVA + 33% UVB) 6.0 J/cm^2 (40 min)
[6] = UV (66% UVA + 33% UVB) 0.15 J/cm^2 (1 min)
[7] = UV (66% UVA + 33% UVB) 0.45 J/cm^2 (3 min)
[8] = solar simulated UVB+UVA irradiation

SPF after UV irradiation [1, 3] | SPF after UV irradiation [1, 4] | SPF after UV irradiation [1, 5] | UVA/UVB (ratio of UVA to UVB absorption) [2] | SPF1 (sun protection factor corresponding to UVB absorption) [2] | SPF2 (sun protection factor corresponding to UVB absorption) [2] | Photo-stability on exposure to UV irradiation (in words) [1, 8] | Molecule | further results
 |  |  | 0.51 | 11.83 ± 0.12 | 6.79 ± 0.12 |  | Leontopodic acids | 
8.25 ± 0.09 | 8.23 ± 0.12 | 8.26 ± 0.10 | 0.59 | 8.25 ± 0.09 | 5.29 ± 0.09 |  | C[C@@H]1O[C@@H](O[C@@H]2[C@@H](O)[C@H](OCCc3ccc(O)c(O)c3)O[C@H](CO)[C@H]2OC(=O)/C=C/c2ccc(O)c(O)c2)[C@H](O)[C@H](O)[C@H]1O [Verbascoside] | 

The remaining lines, values behind:

Molecule | SPF after UV irradiation [1, 3] | SPF after UV irradiation [1, 4] | SPF after UV irradiation [1, 5] | UVA/UVB (ratio of UVA to UVB absorption) [2] | SPF1 (sun protection factor corresponding to UVB absorption) [2] | SPF2 (sun protection factor corresponding to UVB absorption) [2] | Photo-stability on exposure to UV irradiation (in words) [1, 8] | further results
O=C1c2c(O)cc(O)cc2O[C@H](c2ccc(O)c(O)c2)[C@H]1O [Taxifolin] | 6.38 ± 0.12 | 6.38 ± 0.12 | 6.39 ± 0.12 | 0.46 | 6.38 ± 0.12 | 8.39 ± 0.14 |  | 
O=c1cc(-c2ccccc2)oc2cc(O)c(O)c(O)c12 [Baicalein] | 3.68 ± 0.15 | 3.69 ± 0.12 | 3.79 ± 0.12 | 1.14 | 3.65 ± 0.12 | 5.41 ± 0.12 | easily destructed | SPF after UV irradiation [1, 6]: 3.63 ± 0.12; SPF after UV irradiation [1, 7]: 3.62 ± 0.13
O=c1c(O)c(-c2ccc(O)cc2O)oc2cc(O)cc(O)c12 [Morin] |  |  |  | 1.70 | 2.63 ± 0.08 | 3.48 ± 0.12 |  | 
COc1cc(/C=C/C(=O)O)ccc1O [trans-Ferulic acid] | 7.34 ± 0.18 | 3.61 ± 0.13 | 3.74 ± 0.17 |  |  |  |  | SPF after UV irradiation [1, 6]: 5.34 ± 0.09**; SPF after UV irradiation [1, 7]: 3.91 ± 0.11
O=c1c(O)c(-c2ccc(O)c(O)c2)oc2cc(O)cc(O)c12 [Quercetin] |  |  |  |  |  |  | photo-unstable | Photo-stability on exposure to UV irradiation (in words) ([1]; solar simulated UVB+UVA irradiation, listed as quercetin): unstable to exposure to UV irradiation; also recorded: easily destructed; Photo-chemo-toxicity (in words) (skin cells): photo-chemo-toxicity
alpha-glycosyl quercetin [alpha-glycosylated derivative] |  |  |  |  |  |  |  | Photo-stability on exposure to UV irradiation (in words) [1]: photo-unstable; Photo-chemo-toxicity (in words) (skin cells): photo-chemo-toxicity
Oc1ccc(C=Cc2cc(O)cc(O)c2)cc1 [Resveratrol] | 11.98 ± 0.11 | 4.93 ± 0.16 | 4.63 ± 0.10 |  |  |  | unstable to exposure to UV irradiation; also recorded: easily destructed | SPF after UV irradiation [1, 6]: 4.81 ± 0.20**; SPF after UV irradiation [1, 7]: 4.25 ± 0.20; Photo-chemo-toxicity (in words) (skin cells): photo-chemo-toxicity
O=c1c(O)c(-c2cc(O)c(O)c(O)c2)oc2cc(O)cc(O)c12 [myricetin] |  |  |  |  |  |  | easily destructed | 
O=C(/C=C/c1ccccc1)c1ccccc1 [Ghalcone] |  |  |  |  |  |  |  | Photo-chemo-toxicity (in words) (skin cells; skin cells, UV): photo-chemo-toxicity
O=c1c(O)c(-c2ccc(O)cc2)oc2cc(O)cc(O)c12 [kaempferol] |  |  |  |  |  |  | unstable to exposure to UV irradiation | Photo-stability on exposure to UV irradiation (in words) ([1]; solar simulated UVB+UVA irradiation, listed as kaempherol): easily destructed
